Test results taken from publication PMC4704022, “Insights on FXR selective modulation. Speculation on bile acid chemical space in the discovery of potent and selective agonists” (Scientific Reports, 2016).
Entries after “also recorded” stand apart in the source; their conditions may differ.

Biological target: T1, FXR (Homo sapiens, UniProt Q96RI1)
T1 construct: expressed in transfected cells; host or cells: HepG2
T1 sequence (Q96RI1 1-486): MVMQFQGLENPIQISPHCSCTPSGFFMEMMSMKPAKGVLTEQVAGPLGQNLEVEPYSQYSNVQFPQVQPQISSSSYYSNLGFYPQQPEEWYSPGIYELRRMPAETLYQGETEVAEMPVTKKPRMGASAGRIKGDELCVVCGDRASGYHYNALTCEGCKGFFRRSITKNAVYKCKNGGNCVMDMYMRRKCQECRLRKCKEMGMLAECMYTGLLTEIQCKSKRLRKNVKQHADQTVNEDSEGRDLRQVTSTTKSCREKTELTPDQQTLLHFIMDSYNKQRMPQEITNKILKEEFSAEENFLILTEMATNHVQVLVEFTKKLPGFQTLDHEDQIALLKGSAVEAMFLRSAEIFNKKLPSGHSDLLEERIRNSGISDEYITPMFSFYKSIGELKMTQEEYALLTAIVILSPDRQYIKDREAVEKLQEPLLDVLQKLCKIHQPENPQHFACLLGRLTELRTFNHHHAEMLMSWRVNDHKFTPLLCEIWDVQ
T1 sequence (P19793 1-462 partner): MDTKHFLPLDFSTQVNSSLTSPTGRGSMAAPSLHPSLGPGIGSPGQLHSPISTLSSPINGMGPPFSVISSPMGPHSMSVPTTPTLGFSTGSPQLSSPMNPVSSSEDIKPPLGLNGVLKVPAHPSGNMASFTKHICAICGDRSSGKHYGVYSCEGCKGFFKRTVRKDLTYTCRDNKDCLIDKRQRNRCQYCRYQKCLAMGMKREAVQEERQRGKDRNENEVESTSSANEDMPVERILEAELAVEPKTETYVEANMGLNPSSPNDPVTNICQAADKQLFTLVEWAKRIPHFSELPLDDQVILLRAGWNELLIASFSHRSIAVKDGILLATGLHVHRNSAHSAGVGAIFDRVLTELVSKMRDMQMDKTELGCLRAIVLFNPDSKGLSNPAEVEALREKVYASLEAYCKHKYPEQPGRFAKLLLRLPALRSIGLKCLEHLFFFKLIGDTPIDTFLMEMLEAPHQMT
Assay: FXR transactivation luciferase reporter assay in transfected HepG2 cells
Assay type: cell-based
Conditions: HepG2 cells, compounds at 10 μM; CDCA 10 μM and 6-ECDCA 1 μM as positive controls
Procedure: Figure 6 Transactivation assays on FXR. (A) HepG2 cells were transfected with pSG5-FXR, pSG5-RXR, pCMV-βgal, and p(hsp27)TKLUC vectors. […] Twenty-four hour post transfection cells were stimulated with increasing concentrations of each agent: range from 100 nM to 10 μM.
To evaluate the transcriptional activity of FXR, HepG2 cells were transiently transfected with Fugene HD reagent (Promega) using the followings plasmids: pCMVSPORT-humanFXR, pSG5RXR, p(hsp27)TKLUC and pGL4.70, a plasmid containing the Renilla gene used for luciferase normalization.

Row | SMILES | FXR transactivation activity (in words)
1 | CC[C@H]1[C@H](O)C2C3CC[C@H]([C@H](C)CCCO)[C@@]3(C)CCC2[C@@]2(C)CCCC[C@@H]12 (stereo partly shown) [compound 8] | completely inactive towards FXR
2 | CC[C@H]1[C@@H](O)C2C3CC[C@H]([C@H](C)CCC(=O)NCCS(=O)(=O)O)[C@@]3(C)CCC2[C@@]2(C)CCCC[C@@H]12 (stereo partly shown) [compound 12] | ability in transactivating FXR is also maintained; also recorded: still a potent FXR agonist
3 | CC[C@H]1[C@@H](O)C2C3CC[C@H]([C@H](C)CCC(=O)NCCS(=O)(=O)O)[C@@]3(C)CCC2[C@@]2(C)CC[C@H](O)C[C@@H]12 (stereo partly shown) [compound 19] | considerable decrease in FXR transactivation activity; also recorded: detrimental in term of FXR activation
4 | CC[C@H]1[C@H](O)[C@@H]2[C@H](CC[C@]3(C)[C@@H]([C@H](C)CCC(=O)O)CC[C@@H]23)[C@@]2(C)CCCC[C@@H]12 [compound 11, 6α-ethyl-7β-hydroxy-5β-cholan-24-oic acid] | retains a certain activity
5 | CC[C@@H]1[C@H](O)C2C3CC[C@H]([C@H](C)CCCO)[C@@]3(C)CCC2[C@@]2(C)CCCC[C@@H]12 (stereo partly shown) [compound 13] | complete loss of activity
6 | CC[C@H]1[C@@H](O)C2C3CC[C@H]([C@H](C)CCCO)[C@@]3(C)CCC2[C@@]2(C)CCCC[C@@H]12 (stereo partly shown) [compound 7] | potent agonists of FXR
7 | CC[C@@H]1[C@H](O)C2C3CC[C@H]([C@H](C)CCCO)[C@@]3(C)CCC2[C@@]2(C)CC[C@H](O)C[C@@H]12 (stereo partly shown) [compound 20] | complete loss of activity
